Assay results as given in US20230242641A1, “SLAMF7 CARS” (JULIUS-MAXIMILIANS-UNIVERSITÄT WÜRZBURG, priority 2020, published 2023).
Like-named read-outs stand apart in the source and are kept apart here.

What was measured:
[1] = test system: MM.1S cells; settings: cited from earlier work
[2] = test system: SLAMF7; settings: cited from earlier work
[3] = test system: CD34+ hematopoietic stem cells; settings: cited from earlier work
[4] = test system: multiple myeloma; settings: cited from earlier work
[5] = test system: CAR-T cell-induced CRS; settings: 45 pediatric and adult patients; 31 patients; 95% CI: 53%-82%; cited from earlier work
[6] = target: T1, mouse SLAMF7 molecule linked to a Twin-Strep Tag (mice, UniProt Q8BHK6 23-224, limits assumed); assay: flow cytometry: LV-RP cells incubated with Twin-Strep tagged SLAMF7 of different species, stained with anti-Strep Tag antibody (FIG. 37)
T1 construct: also called SLAMF7 of mice; not shown: Twin-Strep Tag
From the text: SLAMF7 molecules linked to a Twin-Strep Tag were stained by an anti-Strep Tag antibody.

Molecule: CC(C)C[C@H](NC(=O)[C@H](Cc1ccccc1)NC(=O)c1cnccn1)B(O)O [Bortezomib]
- eradication of MM.1S ([1]; after 72 hours of treatment): less than 30%

Molecule: Nc1cccc2c1CN(C1CCC(=O)NC1=O)C2=O (stereo not drawn) [Lenalidomide]
- eradication of MM.1S ([1]; after 72 hours of treatment): about 40%

Molecule: N[C@@H](Cc1ccc(N(CCCl)CCCl)cc1)C(=O)O [Melphalan]
- eradication of MM.1S ([1]; after 48 hours of treatment): less than 40%

Molecule: Elotuzumab: SLAMF7-specific monoclonal antibody huLuc63
- eradication of MM.1S ([1]; after 72 hours of treatment): less than 70%
- species cross-reactivity [2]: lack of species cross-reactivity
- binding to CD34+ hematopoietic stem cells [3]: No binding
- interim overall survival rate ([4]; after three years): 60%
- rate of progression-free survival ([4]; at one year after beginning of treatment, elotuzumab group vs control group (only Lenalidomid and dexmethason)): 68%
- infection rate compared to the control group ([4]; in vivo): No significant increase in the infection rate
- lymphocyte reduction after the initial infusion ([4]; in vivo): 77%

Molecule: tocilizumab: recombinant humanized monoclonal antibody that blocks IL-6 from binding to its receptor
- patients achieving a response (resolution of CRS within 14 days of the first dose) [5]: 69%

B1: SLAMF7 binding chimeric antigen receptor (CAR) polypeptide, expressed on human T cells (other)
chain: EVQLVESGGGLVQPGGSLRLSCAASGFDFSRYWMSWVRQAPGKGLEWIGEINPDSSTINYAPSLKDKFIISRDNAKNSLYLQMNSLRAEDTAVYYCARPDGNYWYFDVWGQGTLVTVSSGGGGSGGGGSGGGGSDIQMTQSPSSLSASVGDRVTITCKASQDVGIAVAWYQQKPGKVPKLLIYWASTRHTGVPDRFSGSGSGTDFTLTISSLQPEDVATYYCQQYSSYPYTFGQGTKVEIKESKYGPPCPPCPAPPVAGPSVFLFPPKPKDTLMISRTPEVTCVVVDVSQEDPEVQFNWYVDGVEVHNAKTKPREEQFQSTYRVVSVLTVLHQDWLNGKEYKCKVSNKGLPSSIEKTISKAKGQPREPQVYTLPPSQEEMTKNQVSLTCLVKGFYPSDIAVEWESNGQPENNYKTTPPVLDSDGSFFLYSRLTVDKSRWQEGNVFSCSVMHEALHNHYTQKSLSLSLGKMFWVLVVVGGVLACYSLLVTVAFIIFWVRSKRSRGGHSDYMNMTPRRPGPTRKHYQPYAPPRDFAAYRSRVKFSRSADAPAYQQGQNQLYNELNLGRREEYDVLDKRRGRDPEMGGKPRRKNPQEGLYNELQKDKMAEAYSEIGMKGERRRGKGHDGLYQGLSTATKDTYDALHMQALPPR
notes: also called SLAMF7 CAR; SLAMF7-CAR
- binding result [6]: no binding
